Results: patent US9096591B2, “Tetracyclic compounds” (Medivation Technologies, Inc., priority 2007, dated 2015)
Like-named read-outs stand apart in the source and are kept apart here.

Assays:
[1] = target: T1, human recombinant histamine H1 receptor (Homo sapiens, UniProt P35367); assay: Histamine H1 radioligand binding ([3H]Pyrilamine); settings: percent inhibition of specific binding; screened at 1 μM; read-out: Inhibition of ligand binding, Hist. H1
T1 construct: expressed in transfected cells; host or cells: CHO cells
T1 sequence (P35367 whole entry): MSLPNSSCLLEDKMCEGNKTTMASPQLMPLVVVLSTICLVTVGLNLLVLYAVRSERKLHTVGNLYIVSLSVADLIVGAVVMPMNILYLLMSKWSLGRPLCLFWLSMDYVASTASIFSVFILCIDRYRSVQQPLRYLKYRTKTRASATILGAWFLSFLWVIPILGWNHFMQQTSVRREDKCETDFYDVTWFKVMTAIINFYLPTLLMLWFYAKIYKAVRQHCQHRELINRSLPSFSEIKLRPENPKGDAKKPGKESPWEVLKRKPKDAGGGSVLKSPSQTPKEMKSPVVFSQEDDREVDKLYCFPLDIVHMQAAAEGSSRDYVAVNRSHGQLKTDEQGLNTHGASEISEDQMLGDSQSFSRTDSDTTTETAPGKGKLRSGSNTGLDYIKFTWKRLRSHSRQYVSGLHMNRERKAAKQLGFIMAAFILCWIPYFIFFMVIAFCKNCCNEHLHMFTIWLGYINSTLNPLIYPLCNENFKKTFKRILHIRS
Procedure, shortened: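 Receptor expressed in CHO cells, assayed in 50 mM Tris-HCl pH 7.4 with 2 mM MgCl2, 100 mM NaCl, 250 mM sucrose. Compounds tested at 1 μM in 1% DMSO; non-specific binding set with 1 μM pyrilamine. Filter-bound radioactivity counted; values are percent inhibition of specific binding.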

[2] = target: T2, human recombinant histamine H2 receptor (Homo sapiens, UniProt P25021); assay: Histamine H2 radioligand binding ([125I]Aminopotentidine)
T2 construct: expressed in transfected cells; host or cells: CHO-K1 cells
T2 sequence (P25021 whole entry): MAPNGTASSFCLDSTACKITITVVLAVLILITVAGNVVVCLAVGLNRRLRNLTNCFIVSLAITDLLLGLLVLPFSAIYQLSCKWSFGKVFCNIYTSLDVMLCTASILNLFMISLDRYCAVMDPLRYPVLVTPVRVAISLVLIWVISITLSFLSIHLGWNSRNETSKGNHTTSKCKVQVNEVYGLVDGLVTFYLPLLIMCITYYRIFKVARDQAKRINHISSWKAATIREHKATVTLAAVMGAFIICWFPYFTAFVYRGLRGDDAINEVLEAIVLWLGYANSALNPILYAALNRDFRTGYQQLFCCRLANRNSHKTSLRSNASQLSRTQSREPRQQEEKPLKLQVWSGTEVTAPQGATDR
Procedure, shortened: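 Test compounds were assessed for their ability to displace radioligand from the human recombinant histamine H2 receptor. Non-specific binding was determined in the presence of 3 μM Tiotidine, and results were expressed as percent inhibition of specific binding, with 1% DMSO serving as the vehicle.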

[3] = target: T3, human recombinant adrenergic α1D receptor (Homo sapiens, UniProt P25100); assay: Adrenergic α1D radioligand binding ([3H]Prozosin); parameters: Inhibition of ligand binding, Adren. alpha1D: concentration or dose not given beside the values; settings: percent inhibition of specific binding
T3 construct: expressed in transfected cells; host or cells: HEK-293 cells
T3 sequence (P25100 1-572): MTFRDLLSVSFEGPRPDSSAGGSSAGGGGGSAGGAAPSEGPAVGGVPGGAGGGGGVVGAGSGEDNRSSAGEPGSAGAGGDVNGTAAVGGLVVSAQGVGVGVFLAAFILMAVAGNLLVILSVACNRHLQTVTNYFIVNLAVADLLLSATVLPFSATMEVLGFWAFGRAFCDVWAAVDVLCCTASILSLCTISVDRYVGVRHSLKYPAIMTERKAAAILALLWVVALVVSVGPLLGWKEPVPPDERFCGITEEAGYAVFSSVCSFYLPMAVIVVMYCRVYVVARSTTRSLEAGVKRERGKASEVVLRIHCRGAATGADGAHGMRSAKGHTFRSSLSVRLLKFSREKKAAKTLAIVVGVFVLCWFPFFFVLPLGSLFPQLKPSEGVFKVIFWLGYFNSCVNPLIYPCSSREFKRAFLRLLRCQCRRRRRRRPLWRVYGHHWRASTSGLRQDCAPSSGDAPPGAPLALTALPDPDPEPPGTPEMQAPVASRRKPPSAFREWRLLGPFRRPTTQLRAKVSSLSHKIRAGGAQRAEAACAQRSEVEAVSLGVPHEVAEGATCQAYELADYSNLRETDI
Experimental: Compounds of invention were incubated with 0.6 nM [^3H]Prozosin for 60 minutes at 25° C. Non-specific binding was estimated in the presence of 10 μM phentolamine. Receptor proteins were filtered and washed, the filters were then counted to determine [^3H]Prozosin specifically bound. […] Biochemical assay results are presented as the percent inhibition of specific binding in Table 6.

[4] = target: T4, human recombinant adrenergic α2B receptor (Homo sapiens, UniProt P18089); assay: Adrenergic α2B radioligand binding ([3H]Rauwolscine); parameters: Inhibition of ligand binding, Adren. alpha2B: concentration or dose not given beside the values; settings: percent inhibition of specific binding
T4 construct: expressed in transfected cells; host or cells: CHO-K1 cells
T4 sequence (P18089 1-450): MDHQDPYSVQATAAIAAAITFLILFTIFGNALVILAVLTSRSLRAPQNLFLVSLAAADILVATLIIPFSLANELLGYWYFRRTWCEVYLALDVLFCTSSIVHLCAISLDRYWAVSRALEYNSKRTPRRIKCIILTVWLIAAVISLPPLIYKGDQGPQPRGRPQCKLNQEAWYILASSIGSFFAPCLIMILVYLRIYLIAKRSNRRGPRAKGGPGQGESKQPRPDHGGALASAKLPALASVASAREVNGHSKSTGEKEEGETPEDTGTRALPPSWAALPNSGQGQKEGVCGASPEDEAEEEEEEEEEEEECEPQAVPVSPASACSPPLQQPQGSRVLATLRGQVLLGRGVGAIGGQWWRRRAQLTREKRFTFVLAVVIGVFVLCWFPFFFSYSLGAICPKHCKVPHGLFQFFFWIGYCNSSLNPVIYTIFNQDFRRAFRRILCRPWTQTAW
Procedure, shortened: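 Membranes from CHO-K1 cells expressing the receptor, in 50 mM Tris-HCl pH 7.4 with 12.5 mM MgCl2, 1 mM EDTA, 0.2% BSA, incubated with compounds and 2.5 nM [3H]Rauwolscine for 60 minutes at 25 °C.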

[5] = percent inhibition of specific binding, screened at 1 μM, read-out: Inhibition of ligand binding, Hist. H2

## CN1CCc2c(c3cc(Cl)ccc3n2CCc2cncc(Cl)c2)C1 [Compound 444, 8-chloro-5-(2-(5-chloropyridin-3-yl)ethyl)-2,3,4,5-tetrahydro-2-methyl-1H-pyrido[4,3-b]indole]
[1]
  inhibition at 1 µM: 101%
[2]; [5]
  inhibition at 1 µM: 80%
[3]
  Inhibition of ligand binding, Adren. alpha1D: 91%
[4]
  Inhibition of ligand binding, Adren. alpha2B: 113%

## Cc1ccc2c(c1)c1c(n2CC(C)c2ccc(F)cc2)CCN(C)C1 (centres unmarked) [Compound 456, 5-(2-(4-fluorophenyl)propyl)-2,3,4,5-tetrahydro-2,8-dimethyl-1H-pyrido[4,3-b]indole]
[1]
  inhibition at 1 µM: 99%
[2]; [5]
  inhibition at 1 µM: 98%
[3]
  Inhibition of ligand binding, Adren. alpha1D: 96%
[4]
  Inhibition of ligand binding, Adren. alpha2B: 110%

## CC(C)N1CCN(C(=O)Cn2c3c(c4cc(Cl)ccc42)CN(C)CC3)CC1 [Compound 248]
[1]
  inhibition at 1 µM: 85%
[2]; [5]
  inhibition at 1 µM: 7%
[3]
  Inhibition of ligand binding, Adren. alpha1D: 26%
[4]
  Inhibition of ligand binding, Adren. alpha2B: 75%

## CCc1ccc2c(c1)c1c(n2CCc2cnc(C)cn2)CCN(C)C1 [Compound 364, 8-Ethyl-2-methyl-5-[2-(5-methyl-pyrazin-2-yl)-ethyl]-2,3,4,5-tetrahydro-1H-pyrido[4,3-b]indole]
[1]
  inhibition at 1 µM: 87%
[2]; [5]
  inhibition at 1 µM: 13%
[3]
  Inhibition of ligand binding, Adren. alpha1D: 77%
[4]
  Inhibition of ligand binding, Adren. alpha2B: 109%

## Cc1ccc2c(c1)c1c(n2CCc2cncc(Cl)c2)CCN(C)C1 [Compound 443, 5-(2-(5-chloropyridin-3-yl)ethyl)-2,3,4,5-tetrahydro-2,8-dimethyl-1H-pyrido[4,3-b]indole]
[1]
  inhibition at 1 µM: 102%
[2]; [5]
  inhibition at 1 µM: 94%
[3]
  Inhibition of ligand binding, Adren. alpha1D: 91%
[4]
  Inhibition of ligand binding, Adren. alpha2B: 117%

## Cc1ccc2c(c1)c1c(n2CC(=O)N2CCN(C)CC2)CCN(C)C1 [Compound 459, 2-(1,2,3,4-tetrahydro-2,8-dimethylpyrido[4,3-b]indol-5-yl)-1-(4-methylpiperazin-1-yl)ethanone]
[1]
  inhibition at 1 µM: 0%
[2]; [5]
  inhibition at 1 µM: -4%
[3]
  Inhibition of ligand binding, Adren. alpha1D: 0%
[4]
  Inhibition of ligand binding, Adren. alpha2B: −20%

## Cc1ccc2c(c1)c1c(n2CC(=O)N2CCSCC2)CCN(C)C1 [Compound 399, 2-(1,2,3,4-tetrahydro-2,8-dimethylpyrido[4,3-b]indol-5-yl)-1-thiomorpholinoethanone]
[1]
  inhibition at 1 µM: 42%
[2]; [5]
  inhibition at 1 µM: 10%
[3]
  Inhibition of ligand binding, Adren. alpha1D: 6%
[4]
  Inhibition of ligand binding, Adren. alpha2B: 11%

## Cc1ccc2c(c1)c1c(n2CC(=O)N2CCc3ccccc3C2)CCN(C)C1 [Compound 398, 2-(1,2,3,4-tetrahydro-2,8-dimethylpyrido[4,3-b]indol-5-yl)-1-(3,4-dihydroisoquinolin-2(1H)-yl)ethanone]
[1]
  inhibition at 1 µM: 76%
[2]; [5]
  inhibition at 1 µM: 24%
[3]
  Inhibition of ligand binding, Adren. alpha1D: 17%
[4]
  Inhibition of ligand binding, Adren. alpha2B: 50%

## CCCc1ccc(CCn2c3c(c4cc(Cl)ccc42)CN(C)CC3)cn1 [Compound 476, 8-chloro-2,3,4,5-tetrahydro-2-methyl-5-(2-(6-propylpyridin-3-yl)ethyl)-1H-pyrido[4,3-b]indole]
[1]
  inhibition at 1 µM: 98%
[2]; [5]
  inhibition at 1 µM: 96%
[3]
  Inhibition of ligand binding, Adren. alpha1D: 95%
[4]
  Inhibition of ligand binding, Adren. alpha2B: 97%

## CC(C)c1ccc2c(c1)c1c(n2CCc2ccc(C(F)(F)F)nc2)CCN(C)C1 [Compound 342, 8-Isopropyl-2-methyl-5-[2-(6-trifluoromethyl-pyridin-3-yl)-ethyl]-2,3,4,5-tetrahydro-1H-pyrido[4,3-b]indole]
[1]
  inhibition at 1 µM: 80%
[2]; [5]
  inhibition at 1 µM: 39%
[3]
  Inhibition of ligand binding, Adren. alpha1D: 91%
[4]
  Inhibition of ligand binding, Adren. alpha2B: 108%

## Cc1ncc(CCn2c3c(c4cc(C(C)C)ccc42)CN(C)CC3)cn1 [Compound 370, 8-Isopropyl-2-methyl-5-[2-(2-methyl-pyrimidin-5-yl)-ethyl]-2,3,4,5-tetrahydro-1H-pyrido[4,3-b]indole]
[1]
  inhibition at 1 µM: 85%
[2]; [5]
  inhibition at 1 µM: 18%
[3]
  Inhibition of ligand binding, Adren. alpha1D: 71%
[4]
  Inhibition of ligand binding, Adren. alpha2B: 87%

## Cc1ccc2c(c1)c1c(n2CCc2cccnc2)CCN(C)C1 [Compound 60]
[1]
  inhibition at 1 µM: 101%
[2]; [5]
  inhibition at 1 µM: 56%
[3]
  Inhibition of ligand binding, Adren. alpha1D: 82%
[4]
  Inhibition of ligand binding, Adren. alpha2B: 95%

## CN1CCc2c(c3cc(Cl)cc(F)c3n2CCc2ccc(C(F)(F)F)nc2)C1 [Compound 338, 8-chloro-6-fluoro-5-(2-(6-(trifluoromethyl)pyridin-3-yl)ethyl)-2,3,4,5-tetrahydro-2-methyl-1H-pyrido[4,3-b]indole]
[1]
  inhibition at 1 µM: 96%
[2]; [5]
  inhibition at 1 µM: 78%
[3]
  Inhibition of ligand binding, Adren. alpha1D: 83%
[4]
  Inhibition of ligand binding, Adren. alpha2B: 104%

## Cc1ccc2c(c1)c1c(n2CC(=O)N2CCCC(C)C2)CCN(C)C1 (centres unmarked) [Compound 401, 2-(1,2,3,4-tetrahydro-2,8-dimethylpyrido[4,3-b]indol-5-yl)-1-(3-methylpiperidin-1-yl)ethanone]
[1]
  inhibition at 1 µM: 36%
[2]; [5]
  inhibition at 1 µM: 14%
[3]
  Inhibition of ligand binding, Adren. alpha1D: 1%
[4]
  Inhibition of ligand binding, Adren. alpha2B: 3%

## CN1CCc2c(c3cc(OC(F)(F)F)ccc3n2CCc2ccc(C(F)(F)F)nc2)C1 [Compound 341, 5-(2-(6-(trifluoromethyl)pyridin-3-yl)ethyl)-2,3,4,5-tetrahydro-2-methyl-8-(trifluoromethoxy)-1H-pyrido[4,3-b]indole]
[1]
  inhibition at 1 µM: 28%
[2]; [5]
  inhibition at 1 µM: 15%
[3]
  Inhibition of ligand binding, Adren. alpha1D: −3%
[4]
  Inhibition of ligand binding, Adren. alpha2B: −1%

## Cc1cnc(CCn2c3c(c4cc(C(C)C)ccc42)CN(C)CC3)cn1 [Compound 369, 8-Isopropyl-2-methyl-5-[2-(5-methyl-pyrazin-2-yl)-ethyl]-2,3,4,5-tetrahydro-1H-pyrido[4,3-b]indole]
[1]
  inhibition at 1 µM: 39%
[2]; [5]
  inhibition at 1 µM: 6%
[3]
  Inhibition of ligand binding, Adren. alpha1D: 51%
[4]
  Inhibition of ligand binding, Adren. alpha2B: 105%

## CN1CCc2c(c3cc(Cl)ccc3n2CCc2cncnc2)C1 [Compound 424, 8-Chloro-2-methyl-5-(2-pyrimidin-5-yl-ethyl)-2,3,4,5-tetrahydro-1H-pyrido[4,3-b]indole]
[1]
  inhibition at 1 µM: 104%
[2]; [5]
  inhibition at 1 µM: 19%
[3]
  Inhibition of ligand binding, Adren. alpha1D: 57%
[4]
  Inhibition of ligand binding, Adren. alpha2B: 94%

## Cc1ncc(CCn2c3c(c4cc(Cl)ccc42)CN(C)CC3)cn1 [Compound 361, 8-Chloro-2-methyl-5-[2-(2-methyl-pyrimidin-5-yl)-ethyl]-2,3,4,5-tetrahydro-1H-pyrido[4,3-b]indole]
[1]
  inhibition at 1 µM: 106%
[2]; [5]
  inhibition at 1 µM: 25%
[3]
  Inhibition of ligand binding, Adren. alpha1D: 87%
[4]
  Inhibition of ligand binding, Adren. alpha2B: 94%

## Cc1ccc(C(O)Cn2c3c(c4cc(C)ccc42)CN(C)CC3)cc1 (racemic) [Compound 28, racemic-2-(1,2,3,4-tetrahydro-2,8-dimethylpyrido[4,3-b]indol-5-yl)-1-p-tolylethanol]
[1]
  inhibition at 1 µM: 85%
[2]; 0.3 μM compound, 0.1 nM [125I]Aminopotentidine, read-out: Histamine Binding H2, percent inhibition of specific binding
  inhibition at 0.3 µM: 40%
[2]; 1 μM compound, 0.1 nM [125I]Aminopotentidine, read-out: Histamine Binding H2, percent inhibition of specific binding
  inhibition at 1 µM: 58%
[2]; [5]
  inhibition at 1 µM: 84%
[3]
  Inhibition of ligand binding, Adren. alpha1D: 89%
